Results reported in US20030108872A1, “Genomics-assisted rapid identification of targets” (priority 2000, published 2003).

What was measured:
[1] = test system: B. subtilis NO-347 (BD170 thrC::Pspac-murA kanR ΔmurA::CmR); experiment: MIC by microbroth dilution in B. subtilis under-expressing murA; type: cell-based; conditions: IPTG 0-0.1 mM, compared to the control strain, FIG. 10
Protocol: Materials and Methods. The materials are the same as discussed above. Plasmids are listed in Table 4 B. subtilis strains were routinely grown in LB media or on LB agar plates containing 1.5% agar (Sambrook et al., MOLECULAR CLONING: A LABORATORY MANUAL, 2nd ed., Cold Spring Harbor Laboratory Press, 1989). MIC determination is performed using microbroth dilution-cultures grown in Mueller Hinton broth in 96-well microtiter plates purchased from Nunc (Plates—Cat. No. 262162; Lids—Cat. No. 264122). When required, media were supplemented with 5 μg/ml chloramphenicol or 10 μg/ml kanamycin. IPTG was added to culture media at a final concentration of 0.05 mM for routine culture growth of B. subtilis NO-347 (BDI70 thrC::Pspac-murA kan^R ΔmurA::Cm^R), which is dependent on IPTG for growth.
The endogenous murA gene in NO-360 was deleted by allelic replacement as follows (see FIG. 9). DNA fragments flanking the 5′ and 3′ ends of the murA gene were amplified from B. subtilis 168 genomic DNA using primer pairs KO mura F1+R2 and KO murA F2+R1, respectively. The 5′ and 3′ flanking fragments were linked to the Cm^R gene from pEVP3 using the cross-over PCR technique with the primer pair KO mura F1+R1. The resulting PCR product (shown in FIG. 9B) was used to transform naturally competent B. subtilis NO-360. Cm^R clones were selected in the presence of 0.01 mM and 0.05 mM IPTG. Allelic replacement of murA in Cm^R clones was verified by PCR. Strain NO-347 (BD170 thrC::Pspac-murA Kan^R ΔmurA::Cm^R) was chosen for MIC determinations for phosphomycin in presence of various concentrations of the regulator IPTG.
MIC determinations. Determination of minimum inhibitory concentration (MIC) for phosphomycin, novobiocin, erythromycin and trimethoprim lactate were performed in 96-well microliter plates using the microbroth dilution technique as described in NCCLS. 1997. Methods for dilution antimicrobial susceptibility tests for bacteria that grow aerobically-fourth edition; approved standard. NCCLS document M7-A4. NCCLS, Wayne, Pa. For MIC determinations using strain NO-347, various concentrations (0-0.1 mM) were added to the media. Growth was quantitated by OD600 measurements using a SpectroMax 250 plate reader (Molecular Devices).

[2] = test system: E. coli MC1061, Ec211, Ec261, Ec239, Ec238; experiment: Transformation selection: growth on drug plates of strains over-expressing folA or murA; type: cell-based; conditions: for growth on MHB plates supplemented with drug: 5 μg/ml trimethoprim or 25 μg/ml phosphomycin, no L-arabinose, all strains, FIG. 15
Description: Methods. The genes folA, and murA were amplified from the genomic DNA of E. coli. Each gene was independently cloned in frame into pBAD/Myc-HisB vector, such that expression of the gene is under the regulation of the promoter PBAD. Hexahistidine encoding tags were incorporated into the 3′ end of the gene encoding the C-terminus of the protein through primer design. The construct introduced into the host cells of E. coli MC1061, resulting in Ec211 (construct with folA) and Ec261 (construct with murA).
The entire vector region (araC, PBAD, folA or murA, ampicillin resistance gene) of the above two constructs, but minus the origin, was PCR amplified through primer pairs homologous to regions flanking the origin. The PCR products were then linked at their 5′ ends to the 1 kb region upstream of yibD locus, and linked at their 3′ ends to the 1 kb region downstream of E. coli yibD locus (in effect, replacing yibD) by “crossover PCR” (Kim et al., 1996 Biotechniques 20: 954-5). The linear DNA product was gel purified and introduced into competent and recombinogenic MC1061. Recombinogenic ability was supplied by the red/gam function of plasmid pTP223.
Ec211, […], Ec238, Ec239, and MC1061 were freshly streaked onto Mueller Hinton Broth (MHB) plates. After an overnight incubation at 37° C., they were streaked into different segments onto different selection plates in the order of MHB supplemented with 5 μg/ml trimethoprim, MHB supplemented with 5 μg/ml trimethoprim and 0.1% L-arabinose, MHB supplemented with 25 μg/ml phosphomycin, MHB supplemented with 25 μg/ml phosphomycin and 0.1% L-arabinose, MHB supplemented with 0.1% L-arabinose, and finally plain MHB plates. The plates are 10 cm circular plates filled with 30 ml of media and divided into 6 equal segments. MC1061 was streaked in the first segment, Ec211 in second, Ec261 in third, Ec239 in fourth, Ec238 in fifth and the sixth segment was left blank.

[3] = test system: strains carrying the wild-type murA gene (single copy or multiple copies); experiment: Growth on MHB plates with phosphomycin, wild-type murA; type: cell-based, E. coli
Protocol: (§1) E. coli mutants resistant to phosphomycin were obtained by plating E. coli MC1061 cells in the presence of 5 μg/ml phosphomycin (about 5×MIC), in MHB. Colonies of these resistant mutants were picked and repatched on MHB plates supplemented with 5 μg/ml. […] To determine whether the phenotype of phosphomycin resistance is due to these changes in the murA gene, primers murA-F1 and murA-R1 were used to amplify up a region consisting of 1 kb upstream of the murA gene and 1 kb downstream of the murA gene using as template, DNA extracted from MC1061 and from the phosphomycin-resistant murA mutants. The 3.5 kb PCR amplification fragments were cloned into a high copy vector, and 3 independent clones were picked for each type. The clones, carrying multi-copy plasmids with either wild-type murA or mutated mura, were streaked onto MHB plates and on MHB supplemented with 5, 25, and 50 ,μg/ml phosphomycin. The wild-type MC1061 strain (carrying a single copy of the wild-type murA gene) and the original mutants resistant to phosphomycin were used as controls. All strains grew on MHB plates without phosphomycin. On MHB plates with 5 μg/ml phosphomycin, there was slight growth for strains carrying the wild-type murA gene, whether present in single copy or multiple copies, whereas there was robust growth for cells with the mutated murA gene, whether present in single or multiple copies. On MHB plates with 25 μg/ml phosphomycin, there was no growth for strains carrying the wild-type mura gene, whether present in single copy or multiple copies, but there was robust growth for cells carrying single or multiple copies of the mutated murA gene. On MHB plates with 50 μg/ml phosphomycin, there was no growth for strains carrying wild-type murA (whether present in single copy or multiple copies) but slight growth for strains carrying the mutated murA gene whether present in single or multiple copies. Clearly, the mutants isolated because of their phenotype of resistance to phosphomycin carry mutant mura genes which can confer resistance when transferred to other cells by transformation. […]

[4] = test system: cells with the mutated murA gene (single or multiple copies); experiment: Growth on MHB plates with phosphomycin, mutated murA; type: cell-based, E. coli
Protocol: as §1

SMILES | sensitivity (MIC) on regulated under-expression of murA [1] | growth on MHB plates supplemented with drug [2] | growth on MHB plates with drug and L-arabinose (over-expression rescue) ([2]; 25 μg/ml phosphomycin and 0.1% L-arabinose, Ec261 (multiple copies of murA) and Ec238 (two copies of murA)) | growth on MHB plates ([3]; 5 μg/ml phosphomycin) | growth on MHB plates ([3]; 25 μg/ml phosphomycin) | growth on MHB plates ([3]; 50 μg/ml phosphomycin) | growth on MHB plates ([4]; 5 μg/ml phosphomycin) | growth on MHB plates ([4]; 25 μg/ml phosphomycin) | growth on MHB plates ([4]; 50 μg/ml phosphomycin) | growth on MHB plates with drug and L-arabinose (over-expression rescue) ([2]; 5 μg/ml trimethoprim and 0.1% L-arabinose, Ec211 (multiple copies of folA, PBAD))
C[C@@H]1O[C@@H]1P(=O)(O)O [phosphomycin] | increased sensitivity | Nothing grew | grew up | slight growth | no growth | no growth | robust growth | robust growth | slight growth | –
COc1cc(Cc2cnc(N)nc2N)cc(OC)c1OC [trimethoprim] | does not affect sensitivity | Nothing grew | – | – | – | – | – | – | – | the only strain that grew up
